US20240016777A1, “COMPOUNDS AND METHODS FOR TREATING VIRAL INFECTIONS” (priority 2020, published 2024)
pIC50: −log10 of the molar value.

target: SARS-CoV-2 M^pro (Severe acute respiratory syndrome coronavirus 2 (2019-nCoV) (SARS-CoV-2), UniProt P0DTD1); test: biochemical; details: compound at 17 μM, duplicates, 20 min pre-incubation

`C=C(C)[C@H](CC=C(C)C)Cc1c(O)cc(O)c2c1O[C@H](c1ccc(O)cc1OC)CC2=O` [Leachianone A] was tested, and the “Activity (% enzyme activity by fluorescence relative to initial enzyme activity)” value was “+ (≥80% enzyme activity as indicated by fluorescence measurements)”.
With `O=c1cc(-c2ccc(O)cc2)oc2c([C@@H]3O[C@H](CO)[C@@H](O)[C@H](O)[C@H]3O)c(O)c([C@@H]3OC[C@H](O)[C@H](O)[C@H]3O)c(O)c12` [Isoschaftoside] the “Activity (% enzyme activity by fluorescence relative to initial enzyme activity)” value was “++ (enzyme activity as indicated by fluorescence measurements ≥10% and <80%)”.
In the case of `C=C(C)[C@H](CC=C(C)C)Cc1c(O)cc(O)c2c1O[C@H](c1ccc(O)cc1OC)CC2=O` [Isokurarinone], the “Activity (% enzyme activity by fluorescence relative to initial enzyme activity)” value was “++ (enzyme activity as indicated by fluorescence measurements ≥10% and <80%)”.

same assay, conditions: compound at 17 μM, duplicates, 20 min pre-incubation; read-out: Activity (% enzyme activity by fluorescence relative to initial enzyme activity)

`CC(C)=CCC/C(C)=C/Cc1c(-c2ccc(O)cc2O)oc2cc(O)cc(O)c2c1=O` [5,7,2′,4′-Tetrahydroxy-3-geranylflavone] and `CC(C)=CCc1c(-c2ccc(O)cc2O)oc2c3c(cc(O)c2c1=O)OC(C)(C)C=C3` [Morusin] fall in the same range of remaining activity at 17 µM: 10 to 80% for the first, 10 to 80% for the second.

`CC(C)=CCc1c(O)ccc(C(=O)[C@@H]2C(c3c(O)cc(O)c4c(=O)c(CC=C(C)C)c(-c5ccc(O)cc5O)oc34)C=C(C)CC2c2ccc(O)cc2O)c1O` (stereo partly drawn) [Kuwanon H] showed a remaining activity at 17 µM of 10 to 80%.

same assay, conditions: compounds evaluated at 0.015-300 μM; read-out: IC50

`O=c1cc(-c2ccc(O)cc2)oc2c([C@@H]3O[C@H](CO)[C@@H](O)[C@H](O)[C@H]3O)c(O)c([C@@H]3OC[C@H](O)[C@H](O)[C@H]3O)c(O)c12` [Isoschaftoside] was tested, and the pIC50 was 4.70.

same assay, conditions: read-out: Activity (% enzyme activity by fluorescence relative to initial enzyme activity), compound at 17 μM, duplicates, 20 min pre-incubation

`COc1c(O)cc2oc(-c3ccc(O)c(CC=C(C)C)c3)c(OC)c(=O)c2c1O` [5,7,4-Trihydroxy-3,6-dimethoxy-3-prenylflavone] and `COc1c(O)cc2oc(-c3cc(CC=C(C)C)c(O)c(CC=C(C)C)c3)c(OC)c(=O)c2c1O` [5,7,4′-Trihydroxy-3,6-dimethoxy-3′,5′-diprenylflavone] cannot be ordered by remaining activity at 17 µM: over 80% for the first, over 80% for the second.

`CC(C)=CCc1c(O)c(CC=C(C)C)c2c(c1O)C(=O)[C@H](O)[C@@H](c1ccc(O)cc1O)O2` [Kushenol L] and `C=C(C)[C@H](CC=C(C)C)Cc1c(O)c(CC=C(C)C)c(O)c2c1O[C@H](c1ccc(O)cc1O)[C@@H](O)C2=O` [kushenol M] cannot be ordered by remaining activity at 17 µM: over 80% for the first, over 80% for the second.

`C=C(C)C(CC=C(C)C)Cc1c(O)cc(O)c2c1O[C@H](c1ccc(O)cc1O)[C@@H](O)C2=O` (stereo partly drawn) [Kushenol X] and `C=C(C)[C@H](CC=C(C)C)Cc1c(O)cc(OC)c2c1O[C@H](c1ccc(O)cc1O)[C@@H](O)C2=O` [Kushenol I] cannot be ordered by remaining activity at 17 µM: over 80% for the first, over 80% for the second.

`CC(C)=CCc1c(O)cc(O)c2c1O[C@H](c1ccc(O)cc1)[C@@H](O)C2=O` [neophellamuretin] and `CC(C)=CCc1c(O)cc2c(c1O)C(=O)[C@H](O)[C@@H](c1ccc(O)cc1)O2` [Shuterin] cannot be ordered by remaining activity at 17 µM: over 80% for the first, over 80% for the second.

Going from `CC(C)=CCc1c(O)c(C)c(O)c2c1O[C@H](c1ccc(O)cc1)CC2=O` [6-Methyl-8-prenylnaringenin] to `CC(C)=CCc1c(O)c(CC=C(C)C)c2c(c1O)C(=O)C[C@@H](c1ccc(O)cc1)O2` [6,8-Diprenylnaringenin], the remaining activity at 17 µM rises from under 10% to over 80%.

`CC(C)=CCc1cc(-c2coc3cc(O)cc(O)c3c2=O)cc(CC=C(C)C)c1O` [3′,5′-Diprenylgenistein] and `CC(C)=CCc1cc(-c2coc3cc(O)c(CC=C(C)C)c(O)c3c2=O)cc(O)c1O` [Imbricataflavone A] cannot be ordered by remaining activity at 17 µM: over 80% for the first, over 80% for the second.

Compared with `CC(C)=CCc1c(O)c(CC=C(C)C)c2occ(-c3ccc(O)cc3)c(=O)c2c1O` [6,8-Diprenylgenistein], `CC(C)=CCc1c(O)c(CC=C(C)C)c2occ(-c3ccc(O)c(O)c3)c(=O)c2c1O` [6,8-Diprenylorobol] is higher in remaining activity at 17 µM: 10 to 80% for the first, over 80% for the second.

First: CC(C)=CCc1cc([C@H]2Oc3cc(O)cc(O)c3C(=O)[C@@H]2O)c(O)c(CC=C(C)C)c1O [cathayanon I]
Second: CC(C)=CCc1cc([C@H]2Oc3cc(O)cc(O)c3C(=O)[C@@H]2O)cc(CC=C(C)C)c1O [Cathayanon H]
The remaining activity at 17 µM of the first is lower: 10 to 80% for the first, over 80% for the second.

`CC(C)=CCc1c(O)ccc2c1O[C@H]1c3ccc(O)cc3OC[C@@H]21` [Phaseollidin] and `COc1c(CC=C(C)C)c(O)cc2c1CC(c1ccc(O)cc1O)CO2` (stereo not drawn) [Glyasperin C] cannot be ordered by remaining activity at 17 µM: over 80% for the first, over 80% for the second.

`COc1cc2occ(-c3ccc(O)cc3)c(=O)c2c(O)c1CC=C(C)C` [Gancaonin G] and `CC(C)=CCc1c(O)cc(O)c2c(=O)c(-c3ccc(O)cc3)coc12` [Lupiwighteone] cannot be ordered by remaining activity at 17 µM: over 80% for the first, over 80% for the second.

`O=c1c(-c2ccc(O)cc2O)coc2cc(O)cc(O)c12` [2′-hydroxygenistein] and `CC(C)=CCc1c(O)cc2occ(-c3ccc(O)cc3O)c(=O)c2c1O` [Luteone] cannot be ordered by remaining activity at 17 µM: over 80% for the first, over 80% for the second.

`COc1c(-c2ccc(O)c(O)c2)oc2c(CC=C(C)C)c(O)c(CC=C(C)C)c(O)c2c1=O` [broussoflavonol B] and `CC(C)=CCc1cc(-c2oc3c(CC=C(C)C)c(O)cc(O)c3c(=O)c2O)ccc1O` [Broussoflavonol F] cannot be ordered by remaining activity at 17 µM: over 80% for the first, over 80% for the second.

Compared with `CC(C)=CCc1cc(-c2coc3cc(O)cc(O)c3c2=O)ccc1O` [Isowighteone], `CC(C)=CCc1cc(-c2coc3cc(O)ccc3c2=O)ccc1O` [Neobavaisoflavone] is lower in remaining activity at 17 µM: over 80% for the first, 10 to 80% for the second.

`COc1cc(-c2oc3cc(O)cc(O)c3c(=O)c2OC)cc(CC=C(C)C)c1O` [Dodoviscin J] and `COc1c(-c2cc(CC=C(C)C)c(O)c(CCC(C)CO)c2)oc2cc(O)cc(O)c2c1=O` (stereo not drawn) [Dodoviscin H] cannot be ordered by remaining activity at 17 µM: over 80% for the first, over 80% for the second.

`C=C(C)C(O)Cc1c(O)c(CC=C(C)C)c2occ(-c3ccc(O)c(O)c3)c(=O)c2c1O` (stereo not drawn) [millewanin G] and `CC(C)=CCc1c(O)c(CC=C(C)C)c2occ(-c3ccc(O)cc3O)c(=O)c2c1O` [8-Prenylluteone] cannot be ordered by remaining activity at 17 µM: over 80% for the first, over 80% for the second.

`CC(C)=CCc1cc(-c2coc3cc(O)c(CC=C(C)C)c(O)c3c2=O)ccc1O` [Lupalbigenin] and `CC(C)=CCc1cc(-c2oc3cc(O)c(CC=C(C)C)c(O)c3c(=O)c2O)cc(O)c1O` [broussonol E] cannot be ordered by remaining activity at 17 µM: over 80% for the first, over 80% for the second.

`CC(C)=CCc1c(O)cc(O)c2c(=O)cc(-c3cc(O)c4c(c3)C(O)C(C(C)(C)O)O4)oc12` (stereo not drawn) [Epimedokoreanin C] and `CC(C)=CCc1c(-c2ccc(O)cc2O)oc2c(CC=C(C)C)c(O)cc(O)c2c1=O` [Mulberrin] cannot be ordered by remaining activity at 17 µM: over 80% for the first, over 80% for the second.

`CC(C)=CCc1cc2c(cc1O)O[C@H](c1ccc(O)cc1)CC2=O` [Bavachin] and `CC(C)=CCc1cc([C@@H]2CC(=O)c3c(O)cc(O)cc3O2)cc(CC=C(C)C)c1O` [abyssinone V] cannot be ordered by remaining activity at 17 µM: over 80% for the first, over 80% for the second.

`CC(C)=CCc1c(O)cc(O)c2c1O[C@H](c1ccccc1)[C@@H](O)C2=O` [Glepidotin B] and `COc1cc([C@@H]2CC(=O)c3c(O)cc(O)c(CC=C(C)C)c3O2)c(O)cc1O` [Kushenol W] cannot be ordered by remaining activity at 17 µM: over 80% for the first, over 80% for the second.

`CC(C)=CCc1c(O)cc(O)c2c(=O)c(O)c(-c3ccc(O)cc3)oc12` [8-Prenylkaempferol] and `COc1ccc(-c2oc3c(CC=C(C)C)c(O)cc(O)c3c(=O)c2O)cc1` [Icaritin] cannot be ordered by remaining activity at 17 µM: over 80% for the first, over 80% for the second.

Compared with `COc1cc2c(c(OC)c1CC=C(C)C)C[C@H](c1ccc(O)cc1O)CO2` [Glyasperin D], `C=C(C)[C@H](CC=C(C)C)Cc1c(O)cc(OC)c2c1O[C@H](c1ccc(O)cc1OC)CC2=O` [2′-methoxykurarinone] is higher in remaining activity at 17 µM: 10 to 80% for the first, over 80% for the second.

First: CC(C)=CC[C@]12Oc3cc(O)c([C@H]4C=C(C)C[C@H](c5ccc(O)cc5O)[C@H]4C(=O)c4cc(O)cc(O)c4)c(O)c3C(=O)[C@@]1(O)Oc1cc(O)ccc12 [Sanggenone C]
Second: CC(C)=CCc1c(-c2ccc(O)cc2O)oc2cc(O)cc(O)c2c1=O [Albanin A]
The remaining activity at 17 µM of the first is lower: under 10% for the first, over 80% for the second.

First: COc1ccc(-c2oc3c(CC=C(C)C)c(O[C@@H]4O[C@H](CO)[C@@H](O)[C@H](O)[C@H]4O)cc(O)c3c(=O)c2O[C@@H]2O[C@@H](C)[C@H](OC(C)=O)[C@@H](O)[C@H]2O[C@@H]2O[C@H](COC(C)=O)[C@@H](O)[C@H](OC(C)=O)[C@H]2O)cc1 [Epimedin K]
Second: COc1ccc(-c2oc3c(CC=C(C)C)c(O[C@@H]4O[C@H](CO)[C@@H](O)[C@H](O)[C@H]4O)cc(O)c3c(=O)c2O[C@@H]2O[C@@H](C)[C@H](O[C@@H]3OC[C@@H](O)[C@H](O)[C@H]3O)[C@@H](O)[C@H]2O)cc1 [Epimedin B1]
The remaining activity at 17 µM of the first is higher: over 80% for the first, 10 to 80% for the second.

`CC(C)=CCc1cc(-c2oc3cc(O)cc(O)c3c(=O)c2O)cc(O)c1O` [Uralenol] and `COc1c(O)cc2oc(-c3cc(CC=C(C)C)c4c(c3)CC(O)C(C)(C)O4)c(OC)c(=O)c2c1O` (stereo not drawn) [Dodovisone A] cannot be ordered by remaining activity at 17 µM: over 80% for the first, over 80% for the second.

First: CC(C)=CCc1c(O[C@@H]2O[C@H](CO)[C@@H](O)[C@H](O)[C@H]2O)cc(O)c2c(=O)c(O[C@@H]3O[C@@H](C)[C@H](O)[C@@H](O)[C@H]3O)c(-c3ccc(O)cc3)oc12 [Epimedoside A]
Second: COc1ccc(-c2oc3c(CC=C(C)C)c(O)cc(O)c3c(=O)c2O[C@@H]2O[C@@H](C)[C@H](O[C@@H]3O[C@H](CO)[C@@H](O)[C@H](O)[C@H]3O)[C@@H](O)[C@H]2O)cc1 [Baohuoside VII]
The remaining activity at 17 µM of the first is higher: over 80% for the first, 10 to 80% for the second.

`CC(C)=CCC/C(C)=C/Cc1c(O)c(CC=C(C)C)cc(C2CC(=O)c3c(O)cc(O)cc3O2)c1O` (stereo not drawn) [Sanggenol P] and `COc1ccc(-c2oc3c(CC=C(C)C)c(O)cc(O)c3c(=O)c2O[C@@H]2O[C@@H](C)[C@H](O)[C@@H](O)[C@H]2O[C@@H]2OC[C@@H](O)[C@H](O)[C@H]2O)cc1` [Sagittatoside B] cannot be ordered by remaining activity at 17 µM: over 80% for the first, over 80% for the second.

`COc1ccc(-c2oc3c(CC=C(C)C)c(O)cc(O)c3c(=O)c2O[C@@H]2O[C@@H](C)[C@H](O)[C@@H](O)[C@H]2O[C@@H]2O[C@H](CO)[C@@H](O)[C@H](O)[C@H]2O)cc1` [Sagittatoside A] showed a remaining activity at 17 µM of over 80%.
